Reference: ChEMBL document CHEMBL5042510, “Structure-Guided Discovery of Aminoquinazolines as Brain-Penetrant and Selective LRRK2 Inhibitors” (J Med Chem, 2022)

Experiments:
[1] = biological target: Leucine-rich repeat serine/threonine-protein kinase 2 (Homo sapiens, UniProt Q5S007, G2019S); experiment: Inhibition of recombinant N-terminal GST-fused LRRK2 […] mutant (970 to 2527 residues) (unknown origin) preincubated with enzyme for 15 mins followed by fluorescein-labeled LRRKtide peptide substrate and ATP addition for 90 mins by TR-FRET assay
Leucine-rich repeat serine/threonine-protein kinase 2, sequence (Q5S007 whole entry G2019S, the tested form may be a part): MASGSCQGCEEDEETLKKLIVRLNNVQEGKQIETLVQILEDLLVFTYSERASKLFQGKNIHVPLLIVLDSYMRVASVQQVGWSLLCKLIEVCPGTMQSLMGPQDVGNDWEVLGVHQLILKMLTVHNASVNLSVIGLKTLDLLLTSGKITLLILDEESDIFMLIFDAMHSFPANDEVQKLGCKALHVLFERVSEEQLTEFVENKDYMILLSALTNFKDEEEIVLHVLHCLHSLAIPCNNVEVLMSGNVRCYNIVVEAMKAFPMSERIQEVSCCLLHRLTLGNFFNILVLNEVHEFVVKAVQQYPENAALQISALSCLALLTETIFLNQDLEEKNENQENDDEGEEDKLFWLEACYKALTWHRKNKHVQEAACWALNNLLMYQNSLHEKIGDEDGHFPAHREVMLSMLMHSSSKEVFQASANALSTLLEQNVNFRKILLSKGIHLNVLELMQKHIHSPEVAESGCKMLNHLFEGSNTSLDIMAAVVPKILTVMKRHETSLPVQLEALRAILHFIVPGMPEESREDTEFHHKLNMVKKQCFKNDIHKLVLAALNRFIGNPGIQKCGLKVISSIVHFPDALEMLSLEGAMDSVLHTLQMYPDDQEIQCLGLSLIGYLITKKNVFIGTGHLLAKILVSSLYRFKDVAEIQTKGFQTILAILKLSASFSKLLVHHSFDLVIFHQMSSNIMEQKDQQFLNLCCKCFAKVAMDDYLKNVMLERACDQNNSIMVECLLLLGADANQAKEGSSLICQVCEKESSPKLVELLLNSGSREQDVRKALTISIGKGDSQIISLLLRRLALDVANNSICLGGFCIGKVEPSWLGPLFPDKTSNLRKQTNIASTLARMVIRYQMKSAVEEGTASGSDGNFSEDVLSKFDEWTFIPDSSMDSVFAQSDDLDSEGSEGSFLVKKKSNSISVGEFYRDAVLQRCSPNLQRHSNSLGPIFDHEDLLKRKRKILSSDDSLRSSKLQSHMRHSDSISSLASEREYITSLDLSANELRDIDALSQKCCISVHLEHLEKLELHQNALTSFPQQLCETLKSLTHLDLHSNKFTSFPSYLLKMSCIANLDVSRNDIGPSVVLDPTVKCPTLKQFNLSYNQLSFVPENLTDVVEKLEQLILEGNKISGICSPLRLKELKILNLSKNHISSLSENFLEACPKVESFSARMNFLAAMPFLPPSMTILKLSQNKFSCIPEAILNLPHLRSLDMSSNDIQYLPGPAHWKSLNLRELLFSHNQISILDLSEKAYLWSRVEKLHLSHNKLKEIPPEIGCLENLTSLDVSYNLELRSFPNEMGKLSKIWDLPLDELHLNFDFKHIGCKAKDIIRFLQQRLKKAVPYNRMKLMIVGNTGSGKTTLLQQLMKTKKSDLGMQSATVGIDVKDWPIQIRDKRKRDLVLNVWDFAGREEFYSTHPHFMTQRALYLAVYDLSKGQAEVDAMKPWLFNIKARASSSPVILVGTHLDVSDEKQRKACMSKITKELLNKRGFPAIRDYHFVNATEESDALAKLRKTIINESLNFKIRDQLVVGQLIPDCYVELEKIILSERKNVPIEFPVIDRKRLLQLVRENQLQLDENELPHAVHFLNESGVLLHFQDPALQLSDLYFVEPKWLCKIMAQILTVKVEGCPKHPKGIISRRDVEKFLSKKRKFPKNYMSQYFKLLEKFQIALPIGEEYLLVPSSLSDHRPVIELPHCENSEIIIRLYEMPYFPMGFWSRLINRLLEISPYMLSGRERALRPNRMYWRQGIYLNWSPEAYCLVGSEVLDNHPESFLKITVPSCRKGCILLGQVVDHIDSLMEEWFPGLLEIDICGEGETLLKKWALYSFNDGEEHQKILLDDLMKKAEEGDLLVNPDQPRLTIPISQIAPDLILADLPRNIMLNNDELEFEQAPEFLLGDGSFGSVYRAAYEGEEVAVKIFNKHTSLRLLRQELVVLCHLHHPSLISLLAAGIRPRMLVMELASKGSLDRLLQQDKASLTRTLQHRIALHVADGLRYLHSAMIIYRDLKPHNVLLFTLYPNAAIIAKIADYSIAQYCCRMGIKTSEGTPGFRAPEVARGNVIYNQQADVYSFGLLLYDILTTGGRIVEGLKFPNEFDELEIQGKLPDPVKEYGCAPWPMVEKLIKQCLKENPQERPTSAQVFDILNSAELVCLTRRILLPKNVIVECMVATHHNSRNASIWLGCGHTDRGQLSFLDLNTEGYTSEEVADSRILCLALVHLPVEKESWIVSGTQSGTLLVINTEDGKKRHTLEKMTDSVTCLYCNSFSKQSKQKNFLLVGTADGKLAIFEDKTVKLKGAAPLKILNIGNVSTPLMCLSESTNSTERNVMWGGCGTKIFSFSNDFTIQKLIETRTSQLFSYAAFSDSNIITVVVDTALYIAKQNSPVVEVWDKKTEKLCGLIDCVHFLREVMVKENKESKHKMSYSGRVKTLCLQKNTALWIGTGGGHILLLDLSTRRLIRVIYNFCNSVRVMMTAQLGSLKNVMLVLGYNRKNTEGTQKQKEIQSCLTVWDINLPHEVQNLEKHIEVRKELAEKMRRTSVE

[2] = tested on: Leucine-rich repeat serine/threonine-protein kinase 2 (Homo sapiens), Q5S007 [G2019S]; experiment: Inhibition of LRRK2 […] mutant expressed in human SH-SY5Y cells assessed as unbound concentration required for inhibition of phosphorylation of LRRK2 at Ser935 residue incubated for 90 mins by MSD assay; format: cell-based
Leucine-rich repeat serine/threonine-protein kinase 2 (Homo sapiens), Q5S007 [G2019S], sequence (Q5S007 whole entry G2019S): as the sequence (Q5S007 whole entry G2019S, the tested form may be a part) above

rat Mdr1a (P-gp) [3] = experiment: Efflux ratio of apparent permeability across basolateral to apical side over apical to basolateral side in rat Mdr1a-transfected pig LLC-PK1 cells at 0.1 to 1 uM measured after 3 hrs by LC/MS/MS analysis; format: ADME, cell-based, Sus scrofa; conditions: dose 0.1-1 µM
rat Mdr1a (P-gp) [4] = experiment: Apparent permeability from apical to basolateral side in rat Mdr1a-transfected pig LLC-PK1 cells at 0.1 to 1 uM measured after 3 hrs by LC/MS/MS analysis; format: ADME, cell-based, Sus scrofa; conditions: dose 0.1-1 µM
[5] = Intrinsic clearance in human hepatocytes at 0.3 uM incubated for 90 mins by LC/MS/MS analysis; format: ADME, cell-based, Hepatocyte; conditions: read-out: CLH
[6] = Intrinsic clearance in rat hepatocytes at 0.3 uM incubated for 90 mins by LC/MS/MS analysis; format: ADME, cell-based, Hepatocyte; conditions: read-out: CLH
[7] = Total plasma clearance in Wistar Han rat at 0.1 mg/kg, iv by LC-MS/MS analysis; format: ADME, organism-based
[8] = Intrinsic clearance in Wistar Han rat at 0.1 mg/kg, iv by LC-MS/MS analysis; format: ADME, organism-based; conditions: in vivo
[9] = MRT in Wistar Han rat at 0.1 mg/kg, iv by LC-MS/MS analysis; format: ADME, organism-based; conditions: in vivo
mouse Bcrp = experiment: Efflux ratio of apparent permeability across basolateral to apical over apical to basolateral side in mouse Bcrp-transfected dog MDCK-II cells at 0.1 to 1 uM measured after 3 hrs by LC/MS/MS analysis; format: ADME, cell-based, Canis lupus familiaris; conditions: dose 0.1-1 µM
[10] = biological target: Voltage-gated inwardly rectifying potassium channel KCNH2 (Homo sapiens, UniProt Q12809); experiment: Inhibition of human ERG by voltage clamp assay; format: toxicity
Voltage-gated inwardly rectifying potassium channel KCNH2, sequence (Q12809 whole entry): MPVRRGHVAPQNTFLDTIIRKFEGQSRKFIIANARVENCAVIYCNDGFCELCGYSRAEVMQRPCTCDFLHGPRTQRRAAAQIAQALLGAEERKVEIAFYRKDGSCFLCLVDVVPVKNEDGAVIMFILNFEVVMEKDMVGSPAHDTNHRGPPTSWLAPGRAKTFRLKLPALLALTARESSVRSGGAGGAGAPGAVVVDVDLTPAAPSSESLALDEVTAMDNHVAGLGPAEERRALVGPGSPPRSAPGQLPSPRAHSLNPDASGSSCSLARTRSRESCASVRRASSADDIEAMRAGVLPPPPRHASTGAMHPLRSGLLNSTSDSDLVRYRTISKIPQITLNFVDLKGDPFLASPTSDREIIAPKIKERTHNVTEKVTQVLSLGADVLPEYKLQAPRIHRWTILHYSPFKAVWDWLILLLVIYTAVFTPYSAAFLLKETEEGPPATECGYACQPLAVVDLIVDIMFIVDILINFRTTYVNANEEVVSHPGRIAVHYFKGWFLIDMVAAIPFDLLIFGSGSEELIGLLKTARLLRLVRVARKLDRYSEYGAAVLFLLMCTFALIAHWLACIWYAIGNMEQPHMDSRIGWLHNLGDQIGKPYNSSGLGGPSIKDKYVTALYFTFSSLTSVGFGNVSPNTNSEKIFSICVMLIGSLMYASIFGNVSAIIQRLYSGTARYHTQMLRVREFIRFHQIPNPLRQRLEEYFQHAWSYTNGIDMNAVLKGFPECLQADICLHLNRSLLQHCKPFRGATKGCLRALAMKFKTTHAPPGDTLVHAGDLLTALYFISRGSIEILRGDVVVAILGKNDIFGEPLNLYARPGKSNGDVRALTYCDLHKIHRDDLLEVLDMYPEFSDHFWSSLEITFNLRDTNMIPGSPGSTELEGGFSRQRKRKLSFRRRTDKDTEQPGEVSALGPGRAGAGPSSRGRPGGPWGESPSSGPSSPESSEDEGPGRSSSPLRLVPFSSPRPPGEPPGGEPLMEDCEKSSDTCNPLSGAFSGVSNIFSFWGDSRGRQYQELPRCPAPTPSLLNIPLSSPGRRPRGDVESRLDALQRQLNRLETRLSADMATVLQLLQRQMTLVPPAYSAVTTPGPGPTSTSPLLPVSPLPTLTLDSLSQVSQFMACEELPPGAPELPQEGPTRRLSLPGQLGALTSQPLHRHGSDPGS

[11] = Lipophilicity, logD of the compound by HPLC analysis; format: physicochemical
[12] = Unbound brain-to-plasma concentration ratio in rat at 2.5 uM incubated for 4 hrs by equilibrium dialysis method; format: ADME, cell-free; conditions: brain and plasma (unbound), read-out: K(p,uu,brain)
[13] = Total plasma clearance in Wistar Han rat at 2 mg/kg, iv by LC-MS/MS analysis; format: ADME, organism-based
[14] = Intrinsic clearance in Wistar Han rat at 2 mg/kg, iv by LC-MS/MS analysis; format: ADME, organism-based; conditions: in vivo
[15] = MRT in Wistar Han rat at 2 mg/kg, iv by LC-MS/MS analysis; format: ADME, organism-based; conditions: in vivo
[16] = Intrinsic clearance in dog hepatocytes at 0.3 uM incubated for 90 mins by LC/MS/MS analysis; format: ADME, cell-based, Canis lupus familiaris, Hepatocyte; conditions: read-out: CLH
[17] = Oral bioavailability in Wistar Han rat at 10 mg/kg by LC-MS/MS analysis; format: ADME, organism-based; conditions: in vivo
[18] = Total plasma clearance in Beagle dog at 2 mg/kg, iv by LC-MS/MS analysis; format: ADME, organism-based, Canis lupus familiaris
[19] = Intrinsic clearance in Beagle dog at 2 mg/kg, iv by LC-MS/MS analysis; format: ADME, organism-based, Canis lupus familiaris; conditions: in vivo
[20] = MRT in Beagle dog at 2 mg/kg, iv by LC-MS/MS analysis; format: ADME, organism-based, Canis lupus familiaris; conditions: in vivo
[21] = Oral bioavailability in Beagle dog by LC-MS/MS analysis; format: ADME, organism-based, Canis lupus familiaris; conditions: in vivo
human MDR1 (P-gp) = experiment: Efflux ratio of apparent permeability across basolateral to apical side over apical to basolateral side in human MDR1-transfected dog MDCKII-MDR1 cells at 0.1 to 1 uM measured after 3 hrs by LC/MS/MS analysis; format: ADME, cell-based, Canis lupus familiaris; conditions: MDCK-MDR1, dose 0.1-1 µM
[22] = Unbound brain-to-plasma concentration ratio in non-human primates administered orally and measured after 120 mins by LC/MS/MS analysis; format: ADME; conditions: po, read-out: K(p,uu,brain)
[23] = biological target: Leucine-rich repeat serine/threonine-protein kinase 2 (Homo sapiens) (UniProt Q5S007); experiment: Ex vivo inhibition of LRRK2 in human PBMC assessed as unbound concentration required for reduction in LRRK2 phosphorylation at Ser935 residue incubated for 90 mins by MSD assay; format: cell-based
Leucine-rich repeat serine/threonine-protein kinase 2 (Homo sapiens), sequence (Q5S007 whole entry): as the sequence (Q5S007 whole entry G2019S, the tested form may be a part) above, with S2019G counted along it

[24] = Dissociation constant, pKa of the compound; format: physicochemical

| IC50 [1] [nM] | fIC50 [2] [nM] | efflux ratio at 3 h, up to 1 µM (rat Mdr1a (P-gp) [3]) | Papp A→B at 3 h, up to 1 µM (rat Mdr1a (P-gp) [4]) [×10⁻⁶ cm/s] | CLint scaled at 0.3 µM [5] [mL/min/kg] | CLint scaled at 0.3 µM [6] [mL/min/kg] | clearance [7] [mL/min/kg] | CL [8] [mL/min/kg] | MRT [9] [h] | SMILES | IC50 [10] [nM] | also measured |
| --- | --- | --- | --- | --- | --- | --- | --- | --- | --- | --- | --- |
| 6800 | – | – | – | – | – | – | – | – | Cc1c(Nc2ncc3ccc(C4CCN(C5COC5)CC4)cc3n2)cnn1C1CCOCC1 | – | – |
| < 0.6 | 4.8 | 0.5 | 26 | 57 | 464 | 19 | 1025 | 1.5 | Clc1cc2cnc(Nc3cnn(C4CC4)c3Cl)nc2cc1C1CCN(C2COC2)CC1 | 4600 | efflux ratio at 3 h, up to 1 µM (mouse Bcrp): 0.6 |
| < 0.6 | 7.4 | 1 | 33 | 212 | 336 | 18 | 755 | 1.8 | FC(F)Cn1ncc(Nc2ncc3cc(Cl)c(C4CCN(C5COC5)CC4F)cc3n2)c1Cl (stereo not given) | – | – |
| < 0.6 | 3.2 | 35 | 27 | < 6 | 17 | 9 | 26 | 1.6 | Cc1c(Nc2ncc3ccc(N4C(=O)OC[C@@H]4C)cc3n2)cnn1C1CCOCC1 | – | logD [11]: 1.4 |
| < 0.08 | 1.7 | 0.9 | 31 | 405 | 1960 | – | – | – | N#CC1(c2ccc3cnc(Nc4cnn(C5CCOCC5)c4Cl)nc3c2)CC12CC2 (stereo not given) | – | – |
| < 0.6 | 4.3 | 1.3 | 32 | 175 | 329 | – | – | – | FC1CN(C2COC2)CCC1c1cc2nc(Nc3cnn(C4CC4)c3Cl)ncc2cc1Cl (stereo not given) | 14000 | Kp uu at 4 h, 2.5 µM [12]: 0.5; clearance [13]: 18 mL/min/kg; CL [14]: 1200 mL/min/kg; MRT [15]: 3.8 h; CLint scaled at 0.3 µM [16]: 1300 mL/min/kg; bioavailability [17]: 54%; efflux ratio at 3 h, up to 1 µM (mouse Bcrp): 1.3 |
| < 0.6 | 1.9 | 1.6 | 23 | 720 | 956 | 12 | 2771 | 4.8 | FC1CN(C2COCC2F)CCC1c1cc2nc(Nc3cnn(C4CC4(F)F)c3Cl)ncc2cc1Cl (stereo not given) | 8600 | – |
| – | 71 | 0.9 | 33 | 63 | 168 | 42 | 1800 | 1.1 | Clc1cc2cnc(Nc3cnn(C4CC4)c3Cl)nc2cc1N1CCN(C2COC2)CC1 | 24000 | – |
| 0.65 | 9.9 | 3 | 35 | 49 | 457 | – | – | – | Cc1c(Nc2ncc3cc(Cl)c(C4CCN(C5COC5)CC4)cc3n2)cnn1C1CC1 | 15000 | Kp uu at 4 h, 2.5 µM [12]: 0.2; clearance [13]: 14 mL/min/kg; CL [14]: 260 mL/min/kg; MRT [15]: 2.1 h; CLint scaled at 0.3 µM [16]: 294 mL/min/kg; clearance [18]: 23 mL/min/kg; CL [19]: 477 mL/min/kg; MRT [20]: 2 h; bioavailability [17]: 26%; bioavailability [21]: 38%; efflux ratio at 3 h, up to 1 µM (mouse Bcrp): 4.2 |
| 1.7 | 114 | – | – | – | – | – | – | – | Cc1c(Nc2ncc3ccc(-c4ccn[nH]4)cc3n2)cnn1C1CCOCC1 | – | – |
| < 0.6 | 6.9 | 7.2 | 34 | – | – | – | – | – | Cc1c(Nc2ncc3ccc(C4(C#N)CC45CC5)cc3n2)cnn1C1CCOCC1 (stereo not given) | – | – |
| < 0.6 | 6.1 | 1.2 | 31 | 186 | 210 | 20 | 1545 | 2.7 | FC1CN(C2COC2)CCC1c1cc2nc(Nc3cnn(C4CC4(F)F)c3Cl)ncc2cc1Cl (stereo not given) | 18300 | – |
| – | – | – | – | – | – | – | – | – | CNc1nc(Nc2cn(C(C)(C)C#N)nc2C)ncc1C(F)(F)F [DNL-201] | – | efflux ratio at 3 h, up to 1 µM (human MDR1 (P-gp)): 0.8; Kp uu at 4 h, 2.5 µM [12]: 0.6; Kp uu at 2 h [22]: 0.46 |
| 15 | 90 | – | – | – | – | – | – | – | c1cc(C2CC2)c2nc(Nc3cnn(C4CCOCC4)c3)ncc2c1 | – | – |
| < 0.6 | 2.5 | – | – | 471 | 2640 | 22 | 2494 | 3.3 | FC1CN(C2CCOC2)CCC1c1cc2nc(Nc3cnn(C4CC4(F)F)c3Cl)ncc2cc1Cl (stereo not given) | 35000 | – |
| – | – | – | – | – | – | 22 | 1890 | 1.8 | F[C@@H]1CNCC[C@H]1c1cc2nc(Nc3cnn([C@@H]4CC4(F)F)c3Cl)ncc2cc1Cl | 570 | fIC50 [23]: 9 nM; pKa [24]: 7.79 |
| 1 | 31 | 0.65 | 36 | 162 | 898 | 34 | 1219 | 0.6 | Cc1c(Nc2ncc3cccc(C4CC4)c3n2)cnn1C1CCOCC1 | – | logD [11]: 2.7 |
| 0.7 | 19 | 6.4 | 34 | – | – | – | – | – | Cc1c(Nc2ncc3ccc(C4(C#N)CC4)cc3n2)cnn1C1CCOCC1 | – | – |
| – | – | – | – | – | – | – | – | – | CCNc1nc(Nc2cc(F)c(C(=O)N3CCOCC3)cc2OC)ncc1C(F)(F)F | – | efflux ratio at 3 h, up to 1 µM (human MDR1 (P-gp)): 0.9; Kp uu at 4 h, 2.5 µM [12]: 0.5; Kp uu at 2 h [22]: 0.6 |
